# Where a SMILES comes first, the peptide text is derived from it. [ ]: non-standard residue; d: D form. The star is where a group is joined. ξ: configuration not given here. NMeW = CN[C@@H](Cc1c[nH]c2ccccc12)C(=O)O; Benzoyl(3,5-F2) = O=C(c1cc(F)cc(F)c1)*; NMeIle(3ξ) = CCC(C)[C@H](NC)C(=O)O; NMeF = CN[C@@H](Cc1ccccc1)C(=O)O; NMeQ = CN[C@@H](CCC(N)=O)C(=O)O; NMeL = CN[C@@H](CC(C)C)C(=O)O; Dab = NCC[C@H](N)C(=O)O; Butyryl = CCCC(=O)*; NHOH = ON*
# Legend:
# Format in all cases: biochemical
# MMP-2 = MMP-2 (Homo sapiens (Human), UniProt P08253); assay: MMP-2 inhibition assay (fluorimetric, DQ gelatin substrate); conditions: recombinant MMP-2 (CHO cells) 85 ng/mL, DQ gelatin 50 μg/mL, 2 hours at room temperature, pH 7.6
# Procedure: (§1) All the experiments were done in 1× reaction buffer, which was obtained from a 10× reaction buffer solution. The content of the 10× reaction buffer was: 50 mL of 0.5 M Tris-HCl, 1.5 M NaCl, 50 mM CaCl2 and 2 mM sodium azide at pH 7.6. To obtain the 1× reaction buffer 4 mL of the 10× reaction buffer were diluted in 36 mL of H2O.
# Recombinant MMP-2 expressed in Chinese hamster ovary (CHO) cells was obtained from Merck-Millipore (catalog number PF023-5UG). DQ gelatin from pig skin fluorescein conjugated (MMP-2 substrate) was obtained from Life Technologies (catalog number E12055).
# Preparation of the MMP-2 for the activity assay: MMP-2 was provided as a stock solution (0.1 mg/mL). The enzyme was diluted in 1× reaction buffer to a final concentration of 5 μg/mL.
# Preparation of the DQ gelatin (substrate) solution for the activity assay: the solid form of the substrate was dissolved in water in order to obtain a stock solution of 1 mg/mL.
# Procedure: The enzymatic assays were performed in 96-well microtiter plate, which allowed simultaneous monitoring of multiple reactions. For each reaction, 86.3 μL of 1× reaction buffer (pH 7.6), 1.7 μL of MMP-2 (final concentration 85 ng/mL) and 2 μL of the corresponding new compound were added to each well. A stock solution of new compound was prepared in DMSO (100 mM), and dilutions were prepared from this stock solution with DMSO. Finally, to the mixture contained in each well 10 μL of the substrate were added (final concentration 50 μg/mL). The reaction was incubated for 2 hours at room temperature in an orbital shaker (100 rpm).
# The inhibitory activity of the new compound was measured fluorimetrically. The excitation and emission wavelengths were 483 and 525 nm, respectively.
# Inhibitory activity at several concentration points (ranging from 100 pM to 200 μM MMP) were measured for each compound. The inhibitory activity on MMP-2 and MMP-9 was calculated according to eq 1. For each new compound, the fluorescence in the presence (a) and in the absence (b) of the corresponding MMP was measured. The maximum fluorescence (0% inhibitory activity) was obtained from a sample of the corresponding MMP in the absence of inhibitory compounds. To estimate the inhibitory potency of the novel compounds, activities were plotted against the log concentration of the compound, adjusting to a sigmoid curve using GraphPad Prism software, and the IC50 value, defined as the concentration of compound required to inhibit 50% of the corresponding MMP activity, was determined from resulting curve.
# a corresponds to fluorescence intensity in the presence of substrate+test compound+MMP
# b corresponds to the fluorescence intensity in the presence of substrate+tested compound
# c corresponds to the fluorescence intensity in the presence of substrate+MMP
# d corresponds to the fluorescence intensity of the presence of substrate
# MMP-3 = MMP-3 (Homo sapiens (Human), UniProt P08254); assay: MMP-3 inhibition assay (fluorogenic peptide substrate); conditions: recombinant MMP-3 7.7 nM, Mca-RPKPVE-Nval-WRK(Dnp)-NH2 10 μM, 4 hours at room temperature; tested at 1, 10, 100 and 200 μM
# Procedure: as §1
# Recombinant MMP-3 expressed in E. Coli was obtained from Merck-Millipore (catalog number 44217). Mca-RPKPVE-Nval-WRK(Dnp)-NH2 (fluorogenic peptide substrate) was obtained from R&D Systems (catalog number ES002).
# Preparation of the MMP-3 for the activity assay: MMP-3 was provided as a stock solution (0.1 mg/mL). The enzyme was diluted in water to a final concentration of 0.005 mg/mL.
# MMP-3 peptide substrate was provided as a stock solution in DMSO (4.5 mM). For the assay, the substrate was diluted 1× reaction buffer to a concentration of 100 μM.
# (§2) Procedure: The enzymatic assays were performed in 96-well microtiter plate, which allowed simultaneous monitoring of multiple reactions. For each reaction, 84.6 μL of 1× reaction buffer (pH 7.6), 3.4 μL of MMP-3 (final concentration 7.7 nM) and 2 μL of the corresponding new compound were added to each well. A stock solution of new compound was prepared in DMSO (100 mM), and dilutions were prepared from this stock solution with DMSO. Finally, to the mixture contained in each well 10 μL of the substrate were added (final concentration 10 μM). The reaction was incubated for 4 hours at room temperature in an orbital shaker (90 rpm).
# (§3) The inhibitory activity of the new compound was measured fluorimetrically. The excitation and emission wavelengths were 320 and 405 nm, respectively.
# (§4) Inhibitory activity at several concentration points (1, 10, 100 and 200 μM) were measured for each compound. The inhibitory activity on MMP-1, MMP-3 and MMP-7 was calculated according to eq 1 and The IC50 value was calculated as explained above for MMP-2 and MMP-9.
# MMP-7 = MMP-7 (Homo sapiens (Human), UniProt P09237); assay: MMP-7 inhibition assay (fluorogenic peptide substrate); conditions: recombinant MMP-7 8.3 nM, Mca-PLGL-Dpa-AR-NH2 10 μM, 4 hours at room temperature; tested at 1, 10, 100 and 200 μM
# Procedure: as §1
# Recombinant MMP-7 expressed in E. Coli was obtained from Merck-Millipore (catalog number 44270). Mca-PLGL-Dpa-AR-NH2 (fluorogenic peptide substrate) was obtained from R&D Systems (catalog number ES001).
# Preparation of the MMP-7 for the activity assay: MMP-7 was provided as a stock solution (2.1 mg/mL). The enzyme was diluted in water to a final concentration of 0.005 mg/mL.
# MMP-7 peptide substrate was provided as a solid (1 mg). A 4 mM stock solution of the substrate in DMSO was obtained by adding 214.7 μL of DMSO. After which, a 100 μM solution of substrate was prepared in 1× reaction buffer.
# as §2, with “MMP-7” for “MMP-3”, “8.3” for “7.7”
# as §3, §4
# Sequence of MMP-2 (P08253 110-660): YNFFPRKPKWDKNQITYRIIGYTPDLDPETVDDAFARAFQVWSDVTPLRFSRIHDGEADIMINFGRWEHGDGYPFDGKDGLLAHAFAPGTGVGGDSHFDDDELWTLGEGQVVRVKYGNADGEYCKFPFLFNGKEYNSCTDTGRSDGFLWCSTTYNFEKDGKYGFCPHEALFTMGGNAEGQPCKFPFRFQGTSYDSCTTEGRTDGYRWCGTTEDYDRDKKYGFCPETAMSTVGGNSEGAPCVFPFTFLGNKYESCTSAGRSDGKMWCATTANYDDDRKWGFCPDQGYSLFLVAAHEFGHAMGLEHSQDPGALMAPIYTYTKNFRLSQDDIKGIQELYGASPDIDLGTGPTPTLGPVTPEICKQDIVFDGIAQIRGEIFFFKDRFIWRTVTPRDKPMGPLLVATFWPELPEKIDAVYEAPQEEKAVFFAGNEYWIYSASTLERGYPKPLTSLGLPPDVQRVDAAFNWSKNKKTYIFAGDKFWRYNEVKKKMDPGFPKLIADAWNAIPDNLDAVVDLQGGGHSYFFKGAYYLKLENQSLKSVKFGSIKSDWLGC
# Sequence of MMP-3 (P08254 100-477): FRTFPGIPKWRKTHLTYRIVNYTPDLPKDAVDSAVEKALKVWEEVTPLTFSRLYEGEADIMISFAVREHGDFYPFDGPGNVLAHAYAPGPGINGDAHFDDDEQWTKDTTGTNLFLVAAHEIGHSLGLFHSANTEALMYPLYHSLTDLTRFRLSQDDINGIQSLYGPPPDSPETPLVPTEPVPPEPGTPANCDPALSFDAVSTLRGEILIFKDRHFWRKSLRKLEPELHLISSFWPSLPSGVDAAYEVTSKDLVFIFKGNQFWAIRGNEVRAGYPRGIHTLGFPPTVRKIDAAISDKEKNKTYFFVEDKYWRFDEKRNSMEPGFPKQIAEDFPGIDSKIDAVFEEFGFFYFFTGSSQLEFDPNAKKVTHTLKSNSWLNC
# Sequence of MMP-7 (P09237 95-267): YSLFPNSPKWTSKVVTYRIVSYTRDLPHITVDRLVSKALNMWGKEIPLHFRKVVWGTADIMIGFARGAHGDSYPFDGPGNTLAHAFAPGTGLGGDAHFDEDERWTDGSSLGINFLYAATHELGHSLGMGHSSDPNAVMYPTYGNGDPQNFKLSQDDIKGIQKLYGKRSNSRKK
SMILES,IC50 (MMP-2) [µM],IC50 (MMP-3) [µM],IC50 (MMP-7) [µM],MMP-3 IC50 (MMP-3) [µM]
"CCC(C)[C@@H](C(=O)N[C@@H](CCNC(=O)c1cc(F)cc(F)c1)C(=O)NO)N(C)C(=O)[C@@H]1CCCN1C(=O)[C@H](Cc1ccccc1)N(C)C(C)=O (stereo partly drawn) [Example 11, (2 S)-1-[(2S)-2-[acetyl(methyl)amino]-3-phenyl-propanoyl]-N-[(1S)-1-[[(1S)-3-[(3,5-difluorobenzoyl)amino]-1-(hydroxycarbamoyl)propyl]carbamoyl]-2-methyl-butyl]-N-methyl-pyrrolidine-2-carboxamide] (Ac-[NMeF]P[NMeIle(3ξ)][Dab](Benzoyl(3,5-F2))-{NHOH})",0.174,200,20.1,
"CC(=O)N1CCC[C@H]1C(=O)N(C)[C@@H](CCC(N)=O)C(=O)N[C@@H](Cc1c[nH]c2ccccc12)C(=O)NO [Example C20, (2S)-2-[[(2S)-1-acetylpyrrolidine-2-carbonyl]-methyl-amino]-N-[(1S)-2-(hydroxyamino)-1-(1H-indol-3-ylmethyl)-2-oxo-ethyl]pentanediamide, reference compound] (Ac-Pro-[NMeQ]-Trp-{NHOH})",53,> 2000,> 2000,
"CCC(C)[C@@H](C(=O)N[C@@H](CCNC(=O)c1cc(F)cc(F)c1)C(=O)NO)N(C)C(=O)[C@@H]1CC(F)(F)CN1C(=O)CCCOc1ccccc1 (stereo partly drawn) [Example 10, (2S)—N-[(1S)-1-[[(1S)-3-[(3,5-difluorobenzoyl)amino]-1-(hydroxycarbamoyl)propyl]carbamoyl]-2-methyl-butyl]-4,4-difluoro-N-methyl-1-(4-phenoxybutanoyl)pyrrolidine-2-carboxamide]",0.037,160,8.08,
"CCCC(=O)N(C)[C@@H](Cc1c[nH]c2ccccc12)C(=O)N(C)[C@@H](CC(C)C)C(=O)N1CCC[C@H]1C(=O)N(C)[C@H](C(=O)N[C@@H](CCNC(=O)c1cc(F)cc(F)c1)C(=O)NO)C(C)CC (stereo partly drawn) [Example 14, (2S)-1-[(2S)-2-[[(2S)-2-[butanoyl(methyl)amino]-3-(1H-indol-3-yl)propanoyl]-methyl-amino]-4-methyl-pentanoyl]-N-[(1S)-1-[[(1S)-3-[(3,5-difluorobenzoyl)amino]-1-(hydroxycarbamoyl)propyl]carbamoyl]-2-methyl-butyl]-N-methyl-pyrrolidine-2-carboxamide] (Butyryl-[NMeW][NMeL]P[NMeIle(3ξ)][Dab](Benzoyl(3,5-F2))-{NHOH})",0.116,,61,<1
"CCCCCCCC(=O)N1CCC[C@H]1C(=O)N(C)[C@H](C(=O)N[C@@H](CCNC(=O)c1cc(F)cc(F)c1)C(=O)NO)C(C)CC (stereo partly drawn) [Example 6, (2S)—N-[(1S)-1-[[(1S)-3-[(3,5-difluorobenzoyl)amino]-1-(hydroxycarbamoyl)propyl]carbamoyl]-2-methyl-butyl]-N-methyl-1-octanoyl-pyrrolidine-2-carboxamide]",0.4,53.4,52.6,
"CCC(C)[C@@H](C(=O)N[C@@H](CCNC(=O)c1ccc(F)cc1)C(=O)NO)N(C)C(=O)[C@@H]1CCCN1C(C)=O (stereo partly drawn) [Example 1, (2S)-1-acetyl-N-[(1S)-1-[[(1S)-3-[(4-fluorobenzoyl)amino]-1-(hydroxycarbamoyl)propyl]carbamoyl]-2-methyl-butyl]-N-methyl-pyrrolidine-2-carboxamide]",0.202,30.1,23,
